From the supplement of paper PMC11208160

Test: recombinant UMI read abundance after kanamycin selection (control-corrected) (log10(CPM+1)); higher = more efficient recombination; extreme values may be limits of the assay; sequences stand for … in AGTGCAGAGAAAATCGGCCAGTTTTCTCTGCCTGCAGTCCGCATGCCGTGGGACCCCTTGGGTTCTAACCTGTTGCCTAGATTTATGCAGCGGACTGCCTTTCTCCCAAAGTGATAAACCGG…AGGTTGGTTTCACT; site = the 11-nt donor
Procedure, shortened: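 Values are reported as log10(CPM+1), obtained by converting sequencing counts to CPM, averaging replicates and scaling by control-derived factors. The counts came from recombinant UMIs amplified by PCR across the donor–target junction. These UMIs came from a pooled Escherichia coli screen of donor and donor-binding-loop pairs for the IS621 bridge recombinase, plated with IPTG (0.07 mM) plus kanamycin or left unselected, in two replicates each.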
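Further: IS621 bridge recombinase in Escherichia coli cells against a fixed T5 target plasmid.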

Point of comparison: “TGTACACCATGGACCGGTTTTCCCGGTAATCCGTATTTGGC (site TGTACACCTGA)”, “recombinant UMI read abundance (log10)” value 0. Against it:
- TGGTTGACATGGACCGGTTTTCCCGGTAATCCGTATTTGTA (site TGGTTGACTTA) — higher, 1.04
- TGGTTTCCATGGACCGGTTTTCCCGGTAATCCGTATTTGGG (site TGGTTTCCTCC) — higher, 0.327
- TGTACACCATGGACCGGTTTTCCCGGTAATCCGTATTTGAC (site AGTACACCTGT) — the same, 0
- TGTACACCATGGACCGGTTTTCCCGGTAATCCGTATTTGAC (site CGTACACCTGT) — the same, 0
- TGTACACCATGGACCGGTTTTCCCGGTAATCCGTATTTGAC (site GGTACACCTGT) — the same, 0
- TGTACACCATGGACCGGTTTTCCCGGTAATCCGTATTTGAC (site TATACACCTGT) — the same, 0
- TGTACACCATGGACCGGTTTTCCCGGTAATCCGTATTTGAC (site TCTACACCTGT) — the same, 0
- TGTACACCATGGACCGGTTTTCCCGGTAATCCGTATTTGAC (site TGAACACCTGT) — the same, 0
- TGTACACCATGGACCGGTTTTCCCGGTAATCCGTATTTGAC (site TGCACACCTGT) — the same, 0
- TGTACACCATGGACCGGTTTTCCCGGTAATCCGTATTTGAC (site TGGACACCTGT) — within 0.2 log units, 0.00576
- TGTACACCATGGACCGGTTTTCCCGGTAATCCGTATTTGAC (site TGTAAACCTGT) — the same, 0
- TGTACACCATGGACCGGTTTTCCCGGTAATCCGTATTTGAC (site TGTACAACTGT) — the same, 0
- TGTACACCATGGACCGGTTTTCCCGGTAATCCGTATTTGAC (site TGTACACCTAT) — within 0.2 log units, 0.0116
- TGTACACCATGGACCGGTTTTCCCGGTAATCCGTATTTGAC (site TGTACACCTCT) — within 0.2 log units, 0.0222
- TGTACACCATGGACCGGTTTTCCCGGTAATCCGTATTTGAC (site TGTACACCTGA) — the same, 0
- TGTACACCATGGACCGGTTTTCCCGGTAATCCGTATTTGAC (site TGTACACCTGC) — the same, 0
- TGTACACCATGGACCGGTTTTCCCGGTAATCCGTATTTGAC (site TGTACACCTGG) — the same, 0
- TGTACACCATGGACCGGTTTTCCCGGTAATCCGTATTTGAC (site TGTACACCTGT) — the same, 0
- TGTACACCATGGACCGGTTTTCCCGGTAATCCGTATTTGAC (site TGTACACCTTT) — within 0.2 log units, 0.0141
- TGTACACCATGGACCGGTTTTCCCGGTAATCCGTATTTGAC (site TGTACAGCTGT) — the same, 0
- TGTACACCATGGACCGGTTTTCCCGGTAATCCGTATTTGAC (site TGTACATCTGT) — the same, 0
- TGTACACCATGGACCGGTTTTCCCGGTAATCCGTATTTGAC (site TGTACCCCTGT) — the same, 0
- TGTACACCATGGACCGGTTTTCCCGGTAATCCGTATTTGAC (site TGTACGCCTGT) — the same, 0
- TGTACACCATGGACCGGTTTTCCCGGTAATCCGTATTTGAC (site TGTACTCCTGT) — the same, 0
- TGTACACCATGGACCGGTTTTCCCGGTAATCCGTATTTGAC (site TGTAGACCTGT) — the same, 0
- TGTACACCATGGACCGGTTTTCCCGGTAATCCGTATTTGAC (site TGTATACCTGT) — the same, 0
- TGTACACCATGGACCGGTTTTCCCGGTAATCCGTATTTGAC (site TGTCCACCTGT) — the same, 0
- TGTACACCATGGACCGGTTTTCCCGGTAATCCGTATTTGAC (site TGTGCACCTGT) — the same, 0
- TGTACACCATGGACCGGTTTTCCCGGTAATCCGTATTTGAC (site TGTTCACCTGT) — the same, 0
- TGTACACCATGGACCGGTTTTCCCGGTAATCCGTATTTGAC (site TTTACACCTGT) — the same, 0
- TGTACACCATGGACCGGTTTTCCCGGTAATCCGTATTTGAG (site TGTACACCTAT) — within 0.2 log units, 0.0116
- TGTACACCATGGACCGGTTTTCCCGGTAATCCGTATTTGAG (site TGTACACCTCT) — within 0.2 log units, 0.00855
- TGTACACCATGGACCGGTTTTCCCGGTAATCCGTATTTGAG (site TGTACACCTGT) — the same, 0
- TGTACACCATGGACCGGTTTTCCCGGTAATCCGTATTTGAG (site TGTACACCTTT) — within 0.2 log units, 0.0116
- TGTACACCATGGACCGGTTTTCCCGGTAATCCGTATTTGGC (site TGTACACCTGC) — within 0.2 log units, 0.00484
- TGTACACCATGGACCGGTTTTCCCGGTAATCCGTATTTGGC (site TGTACACCTGG) — the same, 0
- TGTACACCATGGACCGGTTTTCCCGGTAATCCGTATTTGGC (site TGTACACCTGT) — the same, 0
- TGTACGCCATGGACCGGTTTTCCCGGTAATCCGTATTTGAC (site TGTACACCTGT) — the same, 0
- TGTACGCCATGGACCGGTTTTCCCGGTAATCCGTATTTGAC (site TGTACCCCTGT) — the same, 0
- TGTACGCCATGGACCGGTTTTCCCGGTAATCCGTATTTGAC (site TGTACGCCTGT) — the same, 0
- TGTACGCCATGGACCGGTTTTCCCGGTAATCCGTATTTGAC (site TGTACTCCTGT) — the same, 0
- TGTACGCCATGGACCGGTTTTCCCGGTAATCCGTATTTGTA (site TGTACGCCTTA) — within 0.2 log units, 0.00598
- TGTACTGCATGGACCGGTTTTCCCGGTAATCCGTATTTGCC (site TGTACTGCTGG) — higher, 0.865
- TGTACTTCATGGACCGGTTTTCCCGGTAATCCGTATTTGGT (site TGTACTTCTAC) — higher, 1.38
- TGTAGTGCATGGACCGGTTTTCCCGGTAATCCGTATTTGCC (site TGTAGTGCTGG) — higher, 1.56
- TGTAGTGCATGGACCGGTTTTCCCGGTAATCCGTATTTGCT (site TGTAGTGCTAG) — higher, 1.16
- TGTATCACATGGACCGGTTTTCCCGGTAATCCGTATTTGAA (site TGTATCACTTT) — within 0.2 log units, 0.00408
- TGTATCTCATGGACCGGTTTTCCCGGTAATCCGTATTTGGG (site TGTATCTCTCC) — within 0.2 log units, 0.0516
- TGTATGGCATGGACCGGTTTTCCCGGTAATCCGTATTTGAC (site TGTATGGCTGT) — higher, 1.25
- TGTCACCCATGGACCGGTTTTCCCGGTAATCCGTATTTGGC (site TGTCACCCTGC) — the same, 0
- TGTCCAACATGGACCGGTTTTCCCGGTAATCCGTATTTGTA (site AGTCCAACTTA) — within 0.2 log units, 0.0568
- TGTCCAACATGGACCGGTTTTCCCGGTAATCCGTATTTGTA (site CGTCCAACTTA) — higher, 0.338
- TGTCCAACATGGACCGGTTTTCCCGGTAATCCGTATTTGTA (site GGTCCAACTTA) — within 0.2 log units, 0.0289
- TGTCCAACATGGACCGGTTTTCCCGGTAATCCGTATTTGTA (site TGTCCAACTTA) — higher, 0.208
- TGTCCGGCATGGACCGGTTTTCCCGGTAATCCGTATTTGGC (site TGACCGGCTGC) — the same, 0
- TGTCCGGCATGGACCGGTTTTCCCGGTAATCCGTATTTGGC (site TGCCCGGCTGC) — the same, 0
- TGTCCGGCATGGACCGGTTTTCCCGGTAATCCGTATTTGGC (site TGGCCGGCTGC) — the same, 0
- TGTCCGGCATGGACCGGTTTTCCCGGTAATCCGTATTTGGC (site TGTCCGGCTGC) — higher, 0.541
- TGTCGAGCATGGACCGGTTTTCCCGGTAATCCGTATTTGTA (site TGTCGAGCTTA) — higher, 0.92
- TGTCTACCATGGACCGGTTTTCCCGGTAATCCGTATTTGCG (site TGTCTACCTCG) — within 0.2 log units, 0.0129
- TGTCTTGCATGGACCGGTTTTCCCGGTAATCCGTATTTGGG (site TGTCTTGCTCC) — within 0.2 log units, 0.016
- TGTGAATCATGGACCGGTTTTCCCGGTAATCCGTATTTGTC (site TGTGAATCTGA) — higher, 0.782
- TGTGCCACATGGACCGGTTTTCCCGGTAATCCGTATTTGTT (site TGTGCCACTAA) — within 0.2 log units, 0.0457
- TGTGCGGCATGGACCGGTTTTCCCGGTAATCCGTATTTGCT (site TATGCGGCTAG) — within 0.2 log units, 0.00771
- TGTGCGGCATGGACCGGTTTTCCCGGTAATCCGTATTTGCT (site TCTGCGGCTAG) — within 0.2 log units, 0.00448
- TGTGCGGCATGGACCGGTTTTCCCGGTAATCCGTATTTGCT (site TGTGCGGCTAG) — higher, 0.57
- TGTGCGGCATGGACCGGTTTTCCCGGTAATCCGTATTTGCT (site TTTGCGGCTAG) — within 0.2 log units, 0.00385
- TGTGGTCCATGGACCGGTTTTCCCGGTAATCCGTATTTGTC (site TGTGGTCCTGA) — the same, 0
- TGTTACCCATGGACCGGTTTTCCCGGTAATCCGTATTTGTA (site TGTTACCCTTA) — within 0.2 log units, 0.0142
- TGTTACCCATGGACCGGTTTTCCCGGTAATCCGTATTTGTA (site TGTTCCCCTTA) — within 0.2 log units, 0.0074
- TGTTACCCATGGACCGGTTTTCCCGGTAATCCGTATTTGTA (site TGTTGCCCTTA) — within 0.2 log units, 0.0124
- TGTTACCCATGGACCGGTTTTCCCGGTAATCCGTATTTGTA (site TGTTTCCCTTA) — the same, 0
- TGTTAGCCATGGACCGGTTTTCCCGGTAATCCGTATTTGAC (site TGTTAGCCTGT) — the same, 0
- TGTTCCCCATGGACCGGTTTTCCCGGTAATCCGTATTTGCA (site TGTTCCCCTTA) — within 0.2 log units, 0.0177
